Test results taken from EP0402733A2, “Agent for the treatment of central nervous system illnesses and for the enhancement of cerebral blood flow” (Dr. Karl Thomae GmbH, priority 1989, dated 1990).

Key:
[1] = tested on: inhibitorischen Autorezeptoren in hippocampalem Gewebe; assay: Transmitter release study: in vitro acetylcholine release from electrically stimulated hippocampal slices, antagonism of carbachol; format: biochemical, Ratten
From the text: Die Versuche zur in-vitro Freisetzung von Acetylcholin aus hippocampalen Gewebeschnitten wurden in Analogie zu Anordnungen durchgeführt, die für die Freisetzung von 5-HT aus Hypothalamus- bzw. Hippocampus-Gewebe beschrieben sind (vgl. M.H. Richards, Naunyn Schmiedeberg's Arch. Pharmacol. 329, 359-366 (1985) und T.J. Feuerstein, G. Hertting und R. Jackisch, Europ. J. Pharmacol. 107, 233-242 (1985)).
Männliche Ratten (Stamm Chbb:Thom, Gewicht 200 bis 300 g) wurden ohne Vorbehandlung dekapitiert; das gesamte Gehirn wurde sofort entnommen und unter Eiskühlung zerlegt. Gemäß den oben beschriebenen Verfahren wurde der Hippocampus in 0,4 mm dicke Schnitte mit Hilfe eines McIlwain-Gewebehackers geschnitten. Die Gewebeschnitte wurden 30 Minuten lang bei 37°C vorincubiert in Gegenwart von 0,05 mM ³H-Cholin in einem Krebs-Henseleit Puffer der folgenden Zusammensetzung: 120 mM NaCl, 4,8 mM KCl, 1,3 mM CaCl₂, 1,2 mM KH₂PO₄, 1,2 mM MgSO₄ und 25 mM NaHCO₃. Der Puffer enthielt zusätzlich 2 g Glucose und 100 mg EDTA. Der Puffer wurde mit Natronlauge auf einen pH-Wert von 7,4 bei 20°C eingestellt. Alle Lösungen wurden kontinuierlich mit 95 % O₂ und 5 % CO₂ gesättigt. Die Gewebeschnitte wurden daraufhin gespült, jeder Gewebeschnitt wurde jeweils willkürlich auf 12 Superfusionseinheiten verteilt und mit dem Puffer bei 37°C bei einer Fließgeschwindigkeit von 1 ml/min überspült. […]

[2] = biological target: muscarinische Rezeptoren der Pia mater des Rindes; assay: Inhibition of 3H-NMS binding to muscarinic receptors of bovine pia mater homogenate; parameters: species or system Rind; conditions: 0,3 nM [³H]NMS, 45 min, room temperature
Experimental: Die Pia-Gefäße von Rinder-Hirnen, erhalten vom lokalen Schlachthof, wurden präpariert und von Blutresten gereinigt. Je 0,5 g-Portionen wurden bei 8°C bis zur weiteren Verwendung gelagert. Zur Homogenatgewinnung wurden 0,5 g Pia-Geäße mittels eines Gewebehackers zerkleinert, in 60 ml HEPES-Puffer (20 mM HEPES, 10 mM MgCl₂, 100 mM NaCl, pH 7,50) aufgenommen, mit einem Ultra-Turrax homogenisiert und 20 min. bei 0°C mit 48000 x g zentrifugiert. Das Pellet wurde erneut mit einem Ultra-Turrax homogenisiert, durch Mull filtriert und mit HEPES-Puffer auf eine Verdünnung von 1:140 bezogen auf das Feuchtgewicht der Gefäße verdünnt.
0,3 nM [³H]NMS und steigende Konzentrationen des Antagonisten wurden mit dem Homogenat in einem Gesamtvolumen von 0,52 ml für 45 min. bei Raumtemperatur inkubiert. Der Inkubationsansatz wurde mit Hilfe eines Scatron Cell Harvesters über Glasfaser-Filtermatten filtriert und zweimal mit eiskalter physiologischer Kochsalzlösung gewaschen. Die Filter-gebundene Radioaktivität wurde in einem Flüssigkeitsszintillationszähler bestimmt. Als unspezifische Bindung wurde die gebundene Radioaktivität in Gegenwart von 10⁻⁶M (-)-Chinuclidinyl-benzilat definiert.

[3] = biological target: T1, muscarinischen Rezeptoren des Cortex (Rezeptoren vom M₁-Subtyp) (Rattus norvegicus, UniProt P08482); assay: 3H-NMS binding study at muscarinic receptors of the cortex (cerebral cortex homogenate); parameters: species or system Sprague-Dawley-Ratten; conditions: 0,3 nM ³H-NMS, Großhirnrinde homogenate 1:3000, 30°C, 45 min
T1 sequence (P08482 1-460): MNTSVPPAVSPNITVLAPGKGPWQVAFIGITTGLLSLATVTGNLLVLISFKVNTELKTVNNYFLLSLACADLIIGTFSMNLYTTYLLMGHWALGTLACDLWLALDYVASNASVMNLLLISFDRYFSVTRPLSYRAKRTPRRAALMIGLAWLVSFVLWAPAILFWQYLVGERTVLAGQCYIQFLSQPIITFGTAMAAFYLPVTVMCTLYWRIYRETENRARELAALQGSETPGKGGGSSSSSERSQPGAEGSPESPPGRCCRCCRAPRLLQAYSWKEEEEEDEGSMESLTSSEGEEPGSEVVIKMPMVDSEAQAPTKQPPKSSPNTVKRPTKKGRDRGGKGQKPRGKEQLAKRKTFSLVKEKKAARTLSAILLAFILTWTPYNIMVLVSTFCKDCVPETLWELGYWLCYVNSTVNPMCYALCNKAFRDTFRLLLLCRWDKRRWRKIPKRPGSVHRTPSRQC
From the text: Als Organspender dienten männliche Sprague-Dawley-Ratten mit 180-220 g Körpergewicht. Nach Entnahme der Großhirnrinde wurden alle weiteren Schritte in eiskaltem Hepes-HCl-Puffer (pH 7,4; 100 m molar NaCl, 10 m molar MgCl₂) vorgenommen. Das Gesamtherz wurde mit einer Schere zerkleinert. Alle Organe wurden abschließend in einem Potter homogenisiert.
Für den Bindungstest wurden die Organhomogenate in folgender Weise verdünnt:
Die Inkubation der Organhomogenate erfolgte bei einer bestimmten Konzentration des Radioliganden und einer Konzentrationsreihe der nichtradioaktiven Testsubstanzen im Eppendorf-Zentrifugenröhrchen bei 30°C. Die Inkubationsdauer betrug 45 Minuten. Als Radioligand wurde 0,3 n molar ³H-N-Methylscopolamin (³H-NMS) verwendet. Die Inkubation wurde durch Zugabe von eiskaltem Puffer mit nachfolgender Vakuumfiltration beendet. Die Filter wurden mit kaltem Puffer gespült und ihre Radioaktivität bestimmt. Sie repräsentiert die Summe von spezifischer und unspezifischer Bindung von ³H-NMS. Der Anteil der unspezifischen Bindung wurde defi niert als jene Radioaktivität, die in Anwesenheit von 1 µ molar Chinuclidinylbenzilat gebunden wurde. Es wurden immer Vierfachbestimmungen vorgenommen. Die IC₅₀-Werte der nichtmarkierten Testsubstanzen wurden graphisch bestimmt. […]

Structure (SMILES): CCN(CCCC(=O)N1CCC(C(=O)N(C)C)CC1)C(C)Cc1ccc(OC)cc1 (racemic) [Substanz I, (±)-1-[4-[Ethyl[2-(4-methoxyphenyl)-1-methylethyl]amino]-1-oxobutyl]-N,N-dimethyl-4-piperidincarboxamid]
- ACh-Release am Hippocampus-Gewebe (pA₂) ([1]; rat hippocampal slices, electrical stimulation, agonist Carbachol): 8,7
- Verhältnis von IC₅₀ (Cortex) zu pA₂(ACh-Release) ([1]; selectivity ratio: cortex (M₁) binding versus ACh release in hippocampus): 25
- -log IC₅₀ (M) [2]: 8,2
- Rezeptor-Bingungstests Cortex -log IC₅₀ (M) [3]: 7,3
